The target in assay [1] is T1, native aSyn aggregates in A30P transgenic mouse brain sections (Homo sapiens, UniProt P37840, A30P).
T1 construct: from tissue; host or cells: brain sections (midbrain and pons as ROI) of A30P transgenic mice, line B6.D2-Tg(Thy1-SNCA*30P)31Pjk
Put plainly: aSyn in vitro displacement assay ([3H]Example-3 autoradiography). It is filed as binding, mutant human aSyn gene). The note with it: 3 nM [3H]Example-3, A30P transgenic mouse brain sections; for inhibition at 1 µM: 1 μM compound, read-out: PCT_INHIB A30P @ 1 μM (% displacement of [3H]Example-3). (In a radioligand displacement assay an active substance lowers the binding of a labelled ligand.)

The target in assay [2] is T2, native Aβ aggregates in human AD brain tissue sections (Homo sapiens, UniProt P05067).
T2 construct: native Aβ aggregates in human AD brain tissue samples; from tissue; host or cells: human AD brain tissue sections
T2 sequence (P05067 672-713 limits assumed): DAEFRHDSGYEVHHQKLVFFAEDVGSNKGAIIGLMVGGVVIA
Put plainly: Aβ in vitro displacement assay (selectivity counterscreen, [3H]Example 3 autoradiography). The note with it: 3 nM [3H]Example 3, human AD brain sections; for inhibition at 1 µM: 1 μM compound, read-out: sel. counterscreen PCT_INHIB AD @ 1 μM (% displacement of [3H]Example 3). It is filed as binding. (In general: Counterscreens check selectivity or assay interference.)

Molecules are shown by their SMILES.

With `COc1ccc(C(=O)Nc2cnc(N3CCN(c4ccc(C#N)cc4)CC3)nc2)cc1` [Example 97, N-(2-(4-(4-Cyanophenyl)piperazin-1-yl)pyrimidin-5-yl)-4-methoxybenzamide], the inhibition at 1 µM in assay [1] stood at 97%; in assay [2], 106%.

On to `O=C(Nc1ccc(N2CCN(c3ccccn3)CC2)cc1)c1ccc(O)cc1` [Example 2, 4-hydroxy-N-(4-(4-(pyridin-2-yl)piperazin-1-yl)phenyl)benzamide], for which the values for the inhibition at 1 µM in assay [1] and in assay [2] were 85% and 93%, respectively.

Regarding `Cc1ccc(C(=O)Nc2ccc(N3CCN(c4ccccn4)CC3)cn2)c(F)c1` [Example 52, 2-Fluoro-4-methyl-N-(5-(4-(pyridin-2-yl)piperazin-1-yl)pyridin-2-yl)benzamide], the inhibition at 1 µM in assay [1] turned out to be 92%; in assay [2], 95%.

In the case of `O=C(Nc1ccc(N2CCN(c3nccs3)CC2)cc1)c1ccc(OCC(O)CF)cc1` (racemic) [Example 130, rac-4-(3-Fluoro-2-hydroxypropoxy)-N-(4-(4-(thiazol-2-yl)piperazin-1-yl)phenyl)benzamide], the inhibition at 1 µM in assay [1] stood at 81%; in assay [2], 87%.

Turning to `O=C(Nc1ccc(N2CCN(c3ccccn3)CC2)cc1)c1ccc(OCF)cc1` [Example 135, 4-(fluoromethoxy)-N-[4-(4-pyridin-2-ylpiperazin-1-yl)phenyl]benzamide], the inhibition at 1 µM turned out to be 97% in assay [1] and 98% in assay [2].

Take `COc1ccc(C(=O)Nc2ccc(N3CCN(c4ccc(C#N)cn4)CC3)cn2)cc1` [Example 95, N-(5-(4-(5-Cyanopyridin-2-yl)piperazin-1-yl)pyridin-2-yl)-4-methoxybenzamide]: the inhibition at 1 µM in assay [1] is 83%; in assay [2], 95%.

For `O=C(Nc1ccc(N2CCN(c3ccccn3)CC2)cn1)c1ccc(N2CCOCC2)cc1` [Example 51, 4-Morpholino-N-(5-(4-(pyridin-2-yl)piperazin-1-yl)pyridin-2-yl)benzamide], the inhibition at 1 µM in assay [1] and in assay [2] was 94% throughout.

Take `COc1ccc(C(=O)Nc2ccc(N3CCN(c4ccccn4)CC3)nn2)c(F)c1` [Example 40, 2-Fluoro-4-methoxy-N-[6-[4-(2-pyridyl)piperazin-1-yl]pyridazin-3-yl]benzamide]: the inhibition at 1 µM in assay [1] is 86%; in assay [2], 92%.

In the case of `O=C(Nc1cnc(N2CCN(c3ccccn3)CC2)nc1)c1ccccc1F` [Example 61, 2-Fluoro-N-(2-(4-(pyridin-2-yl)piperazin-1-yl)pyrimidin-5-yl)benzamide], the inhibition at 1 µM was 86% in assay [1] and 93% in assay [2].

In the case of `COc1ccc(C(=O)Nc2ccc(N3CCN(c4ccc(C#N)cc4C)CC3)cc2)cc1` [Example 144, N-(4-(4-(4-Cyano-2-methylphenyl)piperazin-1-yl)phenyl)-4-methoxybenzamide], the inhibition at 1 µM in assay [1] came out at 89%; in assay [2] it was 92%.

Take `Cc1ccc(C(=O)Nc2ccc(N3CCN(c4ccccn4)CC3)cn2)cc1` [Example 45, 4-Methyl-N-(5-(4-(pyridin-2-yl)piperazin-1-yl)pyridin-2-yl)benzamide]: the inhibition at 1 µM in assay [1] was determined as 97%; in assay [2], 98%.

Take `COc1ccc(C(=O)Nc2ccc(N3CCN(c4ccc(C#N)cc4)CC3)c(C)c2)cc1` [Example 112, N-[4-[4-(4-Cyanophenyl)piperazin-1-yl]-3-methyl-phenyl]-4-methoxy-benzamide]: the inhibition at 1 µM in assay [1] is 87%; in assay [2] it was 74%.

Take `Cc1ccc(C(=O)Nc2ccc(N3CCN(c4ccccn4)CC3)cn2)nc1` [Example 53, 5-Methyl-N-(5-(4-(pyridin-2-yl)piperazin-1-yl)pyridin-2-yl)picolinamide]: the inhibition at 1 µM was found to be 82% in assay [1] and 86% in assay [2].

Turning to `COc1ccc(C(=O)Nc2ccc(N3CCN(c4ccc(C#N)c(OC)c4)CC3)cc2)cc1` [Example 140, N-(4-(4-(4-Cyano-3-methoxyphenyl)piperazin-1-yl)phenyl)-4-methoxybenzamide], the inhibition at 1 µM in assay [1] stood at 94%; in assay [2] it was 93%.

As to `C#CCOc1ccc(C(=O)Nc2ccc(N3CCN(c4ccc(C#N)cn4)CC3)cc2)cc1` [Example 174, N-[4-[4-(5-Cyano-2-pyridyl)piperazin-1-yl]phenyl]-4-prop-2-ynoxy-benzamide], the inhibition at 3 µM in assay [1] (3 μM compound, read-out: PCT_INHIB A30P @ 3 μM) was 87%; in assay [2] (3 μM compound, read-out: sel. counterscreen PCT_INHIB AD @ 3 μM), 100%.

In the case of `COc1ccc(C(=O)Nc2ccc(N3CCN(c4ccc(C#N)cc4)CC3)cc2)c(C)c1` [Example 168, N-(4-(4-(4-Cyanophenyl)piperazin-1-yl)phenyl)-4-methoxy-2-methylbenzamide], the inhibition at 1 µM worked out at 95% in assay [1] and 96% in assay [2].

Consider `Cc1ccc(C(=O)Nc2ccc(N3CCN(c4ccccn4)CC3)cc2)cc1` [Example 5, 4-Methyl-N-(4-(4-(pyridin-2-yl)piperazin-1-yl)phenyl)benzamide], for which the results for the inhibition at 1 µM in assay [1] and in assay [2] were 99% and 102%, respectively.

For the compound `COc1cccc(C(=O)Nc2ccc(N3CCN(c4ccc(C#N)cc4)CC3)cc2)n1` [Example 93, N-(4-(4-(4-Cyanophenyl)piperazin-1-yl)phenyl)-6-methoxypicolinamide], the values for the inhibition at 1 µM in assay [1] and in assay [2] were 99% and 89%, respectively.

On to `COc1ccc(C(=O)Nc2ccc(N3CCN(c4ccc(S(C)(=O)=O)cc4)CC3)cc2)cc1` [Example 111, 4-Methoxy-N-[4-[4-(4-methylsulfonylphenyl)piperazin-1-yl]phenyl]benzamide], for which the inhibition at 1 µM turned out to be 94% in assay [1] and 92% in assay [2].

Consider `CN1CCN(c2ccc(C(=O)Nc3ccc(N4CCN(c5ccccn5)CC4)cn3)cc2)CC1` [Example 81, 4-(4-Methylpiperazin-1-yl)-N-[5-(4-pyridin-2-ylpiperazin-1-yl)pyridin-2-yl]benzamide], for which the inhibition at 1 µM was 90% in assay [1] and 92% in assay [2].

`COc1ccc(C(=O)Nc2ccc(N3CCN(c4ccc(C#N)cn4)CC3)cc2)cn1` [Example 171, N-(4-(4-(5-Cyanopyridin-2-yl)piperazin-1-yl)phenyl)-6-methoxynicotinamide]: the results for the inhibition at 1 µM in assay [1] and in assay [2] were 89% and 92%, respectively.

Turning to `CN(C)c1ccc(C(=O)Nc2ccc(N3CCN(c4nccs4)CC3)cc2)cc1` [Example 20, 4-(Dimethylamino)-N-[4-[4-(1,3-thiazol-2-yl)piperazin-1-yl]phenyl]benzamide], the inhibition at 1 µM worked out at 90% in assay [1] and 103% in assay [2].

With `N#Cc1ccc(N2CCN(c3ccc(NC(=O)c4ccc(OCC(O)CF)cc4)cc3)CC2)nc1` (racemic) [Example 129, rac-N-(4-(4-(5-Cyanopyridin-2-yl)piperazin-1-yl)phenyl)-4-(3-fluoro-2-hydroxypropoxy)benzamide], the inhibition at 1 µM was 86% in assay [1] and 94% in assay [2].

For `O=C(Nc1ccc(N2CCN(c3cccnc3)CC2)cc1)c1ccc(N2CCOCC2)cc1` [Example 39, 4-Morpholino-N-(4-(4-(pyridin-3-yl)piperazin-1-yl)phenyl)benzamide], the inhibition at 1 µM in assay [1] amounted to 87%; in assay [2], 69%.

For `CN(C)c1ccc(C(=O)Nc2ccc(N3CCN(c4ccccn4)CC3)cn2)cc1` [Example 46, 4-(Dimethylamino)-N-(5-(4-(pyridin-2-yl)piperazin-1-yl)pyridin-2-yl)benzamide], the values for the inhibition at 1 µM in assay [1] and in assay [2] were 94% and 96%, respectively.

For the compound `Cc1cccc(C(=O)Nc2cnc(N3CCN(c4ccccn4)CC3)nc2)c1` [Example 64, 3-Methyl-N-(2-(4-(pyridin-2-yl)piperazin-1-yl)pyrimidin-5-yl)benzamide], the inhibition at 1 µM in assay [1] came out at 88%; in assay [2], 92%.

On to `COc1ccc(C(=O)Nc2ccc(N3CCN(c4cccnc4OC)CC3)cc2)cc1` [Example 67, 4-Methoxy-N-{4-[4-(2-methoxypyridin-3-yl)piperazin-1-yl]phenyl}benzamide], for which the inhibition at 1 µM in assay [1] was determined as 94%; in assay [2], 88%.

For `N#Cc1ccc(N2CCN(c3ccc(NC(=O)c4ccncn4)cc3)CC2)cc1` [Example 165, N-(4-(4-(4-Cyanophenyl)piperazin-1-yl)phenyl)pyrimidine-4-carboxamide], the inhibition at 1 µM is 86% in assay [1] and 90% in assay [2].

Turning to `COC(=O)c1ccc(N2CCN(c3ccc(NC(=O)c4ccc(OC)cc4)cc3)CC2)nc1` [Example 172, Methyl 6-(4-(4-(4-methoxybenzamido)phenyl)piperazin-1-yl)nicotinate], the results for the inhibition at 1 µM in assay [1] and in assay [2] were 93% and 84%, respectively.

For the compound `COc1ccc(C(=O)Nc2ccc(N3CCN(c4ccncc4C)CC3)cc2)cc1` [Example 83, Acetic acid; 4-Methoxy-N-[4-[4-(3-methyl-4-pyridyl)piperazin-1-yl]phenyl]benzamide], the inhibition at 1 µM was determined as 86% in assay [1] and 95% in assay [2].

Regarding `N#Cc1ccc(N2CCN(c3ccc(NC(=O)c4ccncc4)cc3)CC2)nc1` [Example 161, N-(4-(4-(5-Cyanopyridin-2-yl)piperazin-1-yl)phenyl)isonicotinamide], the inhibition at 1 µM in assay [1] came out at 84%; in assay [2], 87%.

Take `COc1ccc(C(=O)Nc2ccc(N3CCN(c4ccc(OC)cc4)CC3)cc2)cc1` [Example 110, 4-Methoxy-N-[4-[4-(4-methoxyphenyl)piperazin-1-yl]phenyl]benzamide]: the inhibition at 1 µM in assay [1] and in assay [2] was 99% throughout.

Source of the values: patent US11541132B2, “Radiolabeled compounds” (Hoffmann-La Roche Inc., priority 2017, dated 2023).
